Consider 7 compounds from patent publication US7345018B2, “Method of treating side effects induced by therapeutic agents” (Reception ApS, priority 2002, dated 2008).

In data set [1] the test system is megalin. The conditions noted are these: relative to gentamicin; cited from earlier work.
For data set [2] the following is noted: patients, nephro- and ototoxic side effects; cited from earlier work.
A further data set concerns the target T1, cubilin (Oryctolagus cuniculus, UniProt U3KLX7).
T1 construct: Megalin and cubilin purified from rabbit kidney cortex; from tissue
Put plainly: BIAcore analysis of binding to cubilin. Particulars: for effect of reduction of disulfide-bridges on binding to cubilin: reduced receptor (reducing agent). For orientation: Surface plasmon resonance follows binding to a sensor surface in real time, without labels.

In data set [3] the test system is cells expressing megalin and cubilin. Put plainly: Inhibition of cellular accumulation of radiolabeled gentamicin. Format: cell-based. Particulars: FIG. 4.
For the next data set, the system named is mouse kidney. Put plainly: Inhibition of uptake of radio-labeled gentamicin into mouse kidney. Format: in vivo. Particulars: intravenous co-infusion, FIG. 5. An excerpt:
FIG. 5: Inhibition of uptake of radio-labeled gentamicin into mouse kidney
The drugs were administrated intravenously. […] This is most likely because infused RAP rapidly is cleared from the circulation by uptake into the liver.

In data set [4] the target is T2, megalin (Mus musculus, UniProt A2ARV4).
T2 construct: from tissue; host or cells: kidney of living wildtype mice (in vivo); the knockout mice lack the receptor
T2 sequence (A2ARV4 26-4660): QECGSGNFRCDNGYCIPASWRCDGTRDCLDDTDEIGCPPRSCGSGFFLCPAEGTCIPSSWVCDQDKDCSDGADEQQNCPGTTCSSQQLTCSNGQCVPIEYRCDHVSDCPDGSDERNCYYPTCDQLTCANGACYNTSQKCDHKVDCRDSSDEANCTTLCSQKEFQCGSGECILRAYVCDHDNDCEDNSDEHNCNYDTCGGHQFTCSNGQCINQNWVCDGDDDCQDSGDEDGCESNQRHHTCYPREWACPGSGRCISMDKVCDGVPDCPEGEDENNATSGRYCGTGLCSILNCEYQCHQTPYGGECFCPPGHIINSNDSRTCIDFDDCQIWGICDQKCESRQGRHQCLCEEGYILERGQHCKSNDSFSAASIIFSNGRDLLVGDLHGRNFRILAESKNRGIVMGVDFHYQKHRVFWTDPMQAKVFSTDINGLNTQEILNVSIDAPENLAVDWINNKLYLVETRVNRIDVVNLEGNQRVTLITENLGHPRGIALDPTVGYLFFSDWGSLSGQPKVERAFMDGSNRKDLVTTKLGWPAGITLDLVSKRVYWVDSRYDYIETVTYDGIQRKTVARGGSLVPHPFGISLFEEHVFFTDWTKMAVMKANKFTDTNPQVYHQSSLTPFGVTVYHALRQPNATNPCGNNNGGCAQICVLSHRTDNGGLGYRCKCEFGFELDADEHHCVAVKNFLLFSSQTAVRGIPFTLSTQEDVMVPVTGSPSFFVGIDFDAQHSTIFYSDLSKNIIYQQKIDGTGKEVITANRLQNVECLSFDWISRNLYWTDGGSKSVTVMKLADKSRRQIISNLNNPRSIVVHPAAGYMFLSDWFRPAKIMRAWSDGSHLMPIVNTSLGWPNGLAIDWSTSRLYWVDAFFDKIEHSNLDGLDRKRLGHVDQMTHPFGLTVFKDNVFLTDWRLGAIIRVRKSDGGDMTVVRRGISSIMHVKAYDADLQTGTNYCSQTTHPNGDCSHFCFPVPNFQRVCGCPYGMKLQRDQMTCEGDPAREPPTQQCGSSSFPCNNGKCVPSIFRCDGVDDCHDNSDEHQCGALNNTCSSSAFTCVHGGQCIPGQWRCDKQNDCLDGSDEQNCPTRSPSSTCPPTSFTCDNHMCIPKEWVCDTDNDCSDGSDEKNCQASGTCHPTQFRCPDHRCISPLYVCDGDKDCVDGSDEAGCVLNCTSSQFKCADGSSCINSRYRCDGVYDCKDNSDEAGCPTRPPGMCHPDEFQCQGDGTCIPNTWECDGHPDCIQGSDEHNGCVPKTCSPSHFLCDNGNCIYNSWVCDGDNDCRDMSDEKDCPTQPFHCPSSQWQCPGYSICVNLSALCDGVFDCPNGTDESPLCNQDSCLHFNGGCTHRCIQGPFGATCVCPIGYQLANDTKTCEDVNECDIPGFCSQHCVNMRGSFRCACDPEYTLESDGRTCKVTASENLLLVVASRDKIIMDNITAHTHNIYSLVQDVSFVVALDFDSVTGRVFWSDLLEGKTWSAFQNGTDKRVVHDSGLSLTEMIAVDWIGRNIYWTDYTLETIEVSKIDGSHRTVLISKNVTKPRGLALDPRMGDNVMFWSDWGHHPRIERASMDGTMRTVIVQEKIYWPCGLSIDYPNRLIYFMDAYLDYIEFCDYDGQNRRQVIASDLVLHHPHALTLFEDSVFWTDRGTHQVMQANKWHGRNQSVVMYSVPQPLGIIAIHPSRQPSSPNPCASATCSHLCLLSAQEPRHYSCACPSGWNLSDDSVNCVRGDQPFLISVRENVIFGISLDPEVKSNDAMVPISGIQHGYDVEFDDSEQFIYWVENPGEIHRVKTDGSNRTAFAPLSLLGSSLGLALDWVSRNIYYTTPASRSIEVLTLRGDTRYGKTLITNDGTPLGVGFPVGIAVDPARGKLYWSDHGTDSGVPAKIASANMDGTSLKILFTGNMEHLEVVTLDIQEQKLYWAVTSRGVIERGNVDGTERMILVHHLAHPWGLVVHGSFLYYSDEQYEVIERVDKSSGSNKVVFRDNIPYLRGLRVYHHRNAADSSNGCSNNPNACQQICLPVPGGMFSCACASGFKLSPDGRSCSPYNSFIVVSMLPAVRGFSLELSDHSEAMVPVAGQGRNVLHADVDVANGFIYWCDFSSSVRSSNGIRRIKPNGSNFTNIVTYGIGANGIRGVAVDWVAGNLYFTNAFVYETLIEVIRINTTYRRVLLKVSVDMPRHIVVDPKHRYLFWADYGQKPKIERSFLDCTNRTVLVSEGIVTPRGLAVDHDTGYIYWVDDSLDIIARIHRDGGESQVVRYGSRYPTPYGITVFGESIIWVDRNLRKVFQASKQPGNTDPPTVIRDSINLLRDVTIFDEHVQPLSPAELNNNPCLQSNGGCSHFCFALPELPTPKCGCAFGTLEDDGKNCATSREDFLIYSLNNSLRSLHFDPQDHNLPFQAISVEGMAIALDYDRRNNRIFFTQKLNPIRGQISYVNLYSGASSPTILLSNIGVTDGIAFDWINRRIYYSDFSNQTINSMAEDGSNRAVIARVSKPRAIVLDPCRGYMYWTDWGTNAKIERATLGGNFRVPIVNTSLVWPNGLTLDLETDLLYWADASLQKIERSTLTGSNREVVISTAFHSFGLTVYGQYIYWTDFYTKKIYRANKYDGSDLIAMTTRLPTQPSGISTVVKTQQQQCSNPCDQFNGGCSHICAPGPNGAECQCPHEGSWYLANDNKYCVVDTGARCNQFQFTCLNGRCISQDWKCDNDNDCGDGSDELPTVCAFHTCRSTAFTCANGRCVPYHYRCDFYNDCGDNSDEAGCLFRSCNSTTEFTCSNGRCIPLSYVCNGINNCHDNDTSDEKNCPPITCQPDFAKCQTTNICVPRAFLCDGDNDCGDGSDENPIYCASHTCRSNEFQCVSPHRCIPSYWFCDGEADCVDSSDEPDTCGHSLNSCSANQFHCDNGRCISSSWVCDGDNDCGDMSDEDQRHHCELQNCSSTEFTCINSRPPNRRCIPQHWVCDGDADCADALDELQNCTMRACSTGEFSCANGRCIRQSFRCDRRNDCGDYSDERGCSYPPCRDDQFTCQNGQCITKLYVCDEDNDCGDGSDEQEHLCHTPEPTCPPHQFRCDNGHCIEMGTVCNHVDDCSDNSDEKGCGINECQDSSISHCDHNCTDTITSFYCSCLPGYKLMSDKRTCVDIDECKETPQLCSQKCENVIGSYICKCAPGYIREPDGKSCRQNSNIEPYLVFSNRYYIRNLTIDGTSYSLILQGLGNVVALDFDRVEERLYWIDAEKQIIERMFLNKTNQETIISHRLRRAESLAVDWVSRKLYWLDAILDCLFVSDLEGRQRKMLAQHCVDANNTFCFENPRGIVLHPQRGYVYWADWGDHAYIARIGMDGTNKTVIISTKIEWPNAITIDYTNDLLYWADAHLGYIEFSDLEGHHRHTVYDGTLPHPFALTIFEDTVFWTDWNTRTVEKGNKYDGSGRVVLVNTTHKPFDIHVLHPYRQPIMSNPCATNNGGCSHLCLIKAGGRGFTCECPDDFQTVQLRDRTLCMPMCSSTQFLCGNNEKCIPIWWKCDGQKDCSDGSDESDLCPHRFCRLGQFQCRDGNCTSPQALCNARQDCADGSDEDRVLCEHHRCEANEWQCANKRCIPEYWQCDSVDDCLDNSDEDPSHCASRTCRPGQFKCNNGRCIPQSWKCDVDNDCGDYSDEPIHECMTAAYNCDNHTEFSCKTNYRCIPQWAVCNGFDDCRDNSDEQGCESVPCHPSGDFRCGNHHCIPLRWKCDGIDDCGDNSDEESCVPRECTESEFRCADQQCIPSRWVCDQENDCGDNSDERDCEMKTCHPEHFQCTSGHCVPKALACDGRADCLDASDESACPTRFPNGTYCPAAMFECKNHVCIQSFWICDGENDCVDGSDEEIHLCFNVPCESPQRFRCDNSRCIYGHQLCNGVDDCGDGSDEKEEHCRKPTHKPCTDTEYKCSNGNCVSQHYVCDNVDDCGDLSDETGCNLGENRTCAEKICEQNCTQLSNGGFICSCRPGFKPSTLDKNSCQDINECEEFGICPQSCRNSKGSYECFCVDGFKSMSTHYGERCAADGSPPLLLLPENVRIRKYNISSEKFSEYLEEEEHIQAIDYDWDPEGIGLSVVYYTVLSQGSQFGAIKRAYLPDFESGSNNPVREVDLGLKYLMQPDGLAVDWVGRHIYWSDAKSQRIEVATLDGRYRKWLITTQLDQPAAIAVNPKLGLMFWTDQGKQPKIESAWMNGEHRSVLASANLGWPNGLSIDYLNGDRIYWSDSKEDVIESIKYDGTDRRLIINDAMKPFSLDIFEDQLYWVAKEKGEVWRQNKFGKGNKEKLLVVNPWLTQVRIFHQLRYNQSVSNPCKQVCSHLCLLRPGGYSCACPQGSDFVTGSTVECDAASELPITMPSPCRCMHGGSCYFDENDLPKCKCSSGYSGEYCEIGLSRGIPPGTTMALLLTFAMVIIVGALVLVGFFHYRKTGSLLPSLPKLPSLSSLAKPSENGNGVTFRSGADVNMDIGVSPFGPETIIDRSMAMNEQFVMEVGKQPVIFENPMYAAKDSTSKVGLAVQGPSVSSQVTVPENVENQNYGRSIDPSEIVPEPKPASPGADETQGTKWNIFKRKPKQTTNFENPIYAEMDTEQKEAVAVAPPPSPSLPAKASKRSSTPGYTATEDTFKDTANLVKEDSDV
Put plainly: Uptake of radioactively labelled gentamicin in wildtype and megalin-deficient (knockout) mice. The conditions noted are these: wildtype mice, after 24 hours, radioactively labelled. The format is in vivo. The procedure:
(§1) Radioactively labelled aminoglycosides (gentamicin) were injected into 26 normal (wildtype) and into 3 megalin-deficient mice (knockout). After 24 hours, the secretion of the aminoglycosides into the urine and their accumulation in the kidneys were determined. In wildtype mice, about 10% of the administered aminoglycosides are accumulated in the kidneys and 40% are secreted into the urine.
(§2) In one embodiment the animal model is a mouse model with an induced megalin gene defect (knockout mouse; Nykjaer, A. et al., Cell 96, 507-515). In these animals, the contribution of megalin and other receptor-mediated or receptor-independent processes to the drug uptake into the kidneys may be tested. The amount of intracellular accumulation of the drug in question as compared to a control having sufficient megalin indicates whether the mechanism of side effects is intracellular accumulation through megalin binding or some other mechanism.

Data set [5] relates to megalin. Described as above. Format: in vivo, mouse. Particulars: megalin-deficient knockout mice, after 24 hours. As for the experimental part: as §1, §2
The test system of data set [6] is megalin. The data set can be described thus: BIAcore analysis of binding to megalin.
Data set [7] addresses T2, megalin. The data set can be described thus: Suppression of radioactive gentamicin uptake into the kidneys of wildtype mice by megalin antagonist. The format is in vivo. The conditions noted are these: co-injection with radioactive gentamicin. The procedure:
Two groups of wildtype mice received an injection of radioactive gentamicin. One group was also injected with polymyxin B, a substance that binds with a high affinity to megalin and displaces gentamicin from the receptor. The administration of polymyxin B reduces the uptake of aminoglycosides into the kidneys by more than 60%.

[8] abbreviates: addition of EDTA (calcium depletion).

In the case of `NCC[C@H](O)C(=O)N[C@@H]1C[C@H](N)[C@@H](O[C@H]2O[C@H](CN)[C@@H](O)[C@H](O)[C@H]2O)[C@H](O)[C@H]1O[C@H]1O[C@H](CO)[C@@H](O)[C@H](N)[C@H]1O` [amikacin], the “poorer binding than gentamicin to megalin” value in the data set on megalin [1] was “about 5 times”. Besides, the rate of toxicity in [2] is 1-4%.
For “RAP: receptor-associated protein, a cellular protein comprising about 300 amino acids, known to bind to megalin”, the “effect of reduction of disulfide-bridges on binding to cubilin” value in the data set with cubilin was “significantly inhibited”. For the same compound, the “inhibition of cellular accumulation of radiolabeled gentamicin” value (“inhibition … of radiolabeled gentamicin” for short) in data set [3] is “able to inhibit at least partly”.
As to aprotinin, the “inhibition … of radiolabeled gentamicin” value in data set [3] is given as “inhibit gentamioin uptake”.
In the case of gentamicin, the binding to cubilin result at cubilin (BIAcore, FIG. 3 panel B) is “direct binding”. Also, on cubilin (setting [8]), the “effect of EDTA on binding to cubilin” value is “does not abolish binding”. Also, at cubilin, the “effect of reduction of disulfide-bridges on binding to cubilin” value was “does not significantly interefere with ligand binding”. Moreover, the “inhibition of uptake of radio-labeled gentamicin into mouse kidney” value in the data set with mouse kidney is “can be inhibited”. In addition, on megalin [4], the “accumulation of administered aminoglycoside in the kidneys” value is “about 10%” and the “secretion of administered aminoglycoside into the urine” value came to 40%. For the same compound, in the data set with megalin [5], the “accumulation of aminoglycoside in the kidneys” value is “no accumulation” and the “secretion of antibiotic into the urine” value is 40%. In addition, the binding to megalin entry with megalin [6] (BIAcore, FIG. 3 panel A) is “direct binding”. For the same compound, the “effect of EDTA on binding to megalin” value in the data set on megalin [6] (setting [8]) is recorded as “does not abolish binding”. Besides, the “effect of reduction of disulfide-bridges on binding to megalin” value in the data set with megalin [6] (reduced receptor) was “does not significantly interefere with ligand binding”.
Regarding poly-L-aspartate, in [3], the “inhibition … of radiolabeled gentamicin” value was “not”.
On to poly-L-lysine, for which, in data set [3], the “inhibition … of radiolabeled gentamicin” value is “can be inhibited”. Also, the “inhibition of uptake of radio-labeled gentamicin into mouse kidney” value in the data set with mouse kidney is recorded as “can be inhibited”.
Turning to polymyxin B, at megalin [7], the “reduction of uptake of aminoglycosides into the kidneys” value is recorded as “more than 60%”. The “inhibition … of radiolabeled gentamicin” value in [3] was “inhibit gentamioin uptake”. In the data set with mouse kidney, the “inhibition of uptake of radio-labeled gentamicin into mouse kidney” value is “can be inhibited”.
